For 15 compounds, IC50 and MIC results are on record in ChEMBL document CHEMBL4828775, “Antimicrobial and Cytotoxic Angucyclic Quinones from Actinomadura miaoliensis” (J Nat Prod, 2021).

For one experiment, the system named is NCI-H187. In words: Cytotoxicity against human NCI-H187 cells assessed as reduction in cell viability by resazurin microplate assay. The experiment is classed as functional, cell-based. In general terms: Alamar Blue is a resazurin reagent that responds to reducing activity.
A further experiment has as its system Staphylococcus aureus. In words: Antibacterial activity against Staphylococcus aureus assessed as inhibition of bacterial growth by CLSI based microdilution method. The experiment is classed as functional. Background: In broth dilution the organism is exposed to a series of concentrations in liquid medium.
Another experiment concerns Acinetobacter baumannii. The experiment in a line: Antibacterial activity against Acinetobacter baumannii assessed as inhibition of bacterial growth by CLSI based microdilution method. Format: functional.
The test system of experiment [1] is Mycobacterium tuberculosis. The experiment in a line: Antitubercular activity against Mycobacterium tuberculosis H37Ra assessed as inhibition of bacterial growth by green fluorescent protein based method. The experiment is classed as functional.
A further experiment has as its system MCF7. In words: Cytotoxicity against human MCF7 cells assessed as reduction in cell viability by resazurin microplate assay. The experiment is classed as functional, cell-based.
The next experiment deals with Alternaria brassicicola. In words: Antifungal activity against Alternaria brassicicola assessed as inhibition of fungal growth by CLSI based microdilution method. The experiment is classed as functional.
In another experiment the test system is Plasmodium falciparum. In words: Antimalarial activity against Plasmodium falciparum K1 assessed as inhibition of parasite growth by microculture radioisotope technique. The experiment is classed as functional, organism-based.
For the next experiment, the system named is Vero. In words: Cytotoxicity against African green monkey Vero cells assessed as reduction in cell viability by resazurin microplate assay. The experiment is classed as cell-based. To be noted: Chlorocebus sabaeus.
The next experiment concerns Curvularia lunata. The experiment in a line: Antifungal activity against Curvularia lunata assessed as inhibition of fungal growth by CLSI based microdilution method. The experiment is classed as functional.

Molecules are shown by their SMILES. In brackets after ≈: the same amount, converted by molar mass. Where only a bound is given, the exact number is not on record here.

For the compound `CC1=C[C@@H](O)[C@H]2[C@](O)(CC[C@]3(O)C(=O)c4c(O)cccc4[C@H](O)[C@@]23O)C1`, the half-maximal inhibitory concentration (IC50) is over 138 µM in the experiment with NCI-H187, over 138 µM in the experiment with MCF7, over 28 µM in the experiment on Plasmodium falciparum and over 138 µM in the experiment with Vero. Moreover, the MIC with Staphylococcus aureus was over 138 µM; with Acinetobacter baumannii it was over 138 µM; in experiment [1], 138 µM (≈ 50 µg/mL); in the experiment with Alternaria brassicicola, over 138 µM; in the experiment with Curvularia lunata it was over 138 µM.

With `CC[C@H]1OC(=O)[C@H](C)[C@@H](O[C@H]2C[C@@](C)(OC)[C@@H](O)[C@H](C)O2)[C@H](C)[C@@H](O[C@@H]2O[C@H](C)C[C@H](N(C)C)[C@H]2O)[C@](C)(O)C[C@@H](C)C(=O)[C@H](C)[C@@H](O)[C@]1(C)O` [ERYTHROMYCIN], the minimum inhibitory concentration (MIC) in the experiment with Acinetobacter baumannii was determined as 8.5 µM (≈ 6.24 µg/mL).

Turning to `Cc1c2ccncc2c(C)c2c1[nH]c1ccccc12` [ELLIPTECINE], the half-maximal inhibitory concentration (IC50) in the experiment on NCI-H187 is 13.7 µM; in the experiment on Vero, 4.5 µM.

On to `C[C@@H]1[C@H](O)[C@@H](C)/C=C/C=C/C=C/C=C/C=C/C=C/C=C/[C@H](O[C@@H]2O[C@H](C)[C@@H](O)[C@H](N)[C@@H]2O)C[C@@H]2O[C@](O)(C[C@@H](O)C[C@@H](O)[C@H](O)CC[C@@H](O)C[C@@H](O)CC(=O)O[C@H]1C)C[C@H](O)[C@H]2C(=O)O` [AMPHOTERICIN B], for which the MIC was determined as 0.8 µM (≈ 0.739 µg/mL) in the experiment on Alternaria brassicicola and 1.7 µM (≈ 1.57 µg/mL) with Curvularia lunata.

For `NNC(=O)c1ccncc1` [ISONIAZID], the MIC in experiment [1] came to 0.5 µM (≈ 0.0686 µg/mL).

With `Cc1cc(O)c2c(c1)CCC1=C2C(=O)c2cccc(O)c2C1=O`, the IC50 with NCI-H187 turned out to be 3 µM; with MCF7, 1.1 µM; in the experiment with Plasmodium falciparum, 2.6 µM; with Vero, 1.4 µM. Besides, the minimum inhibitory concentration (MIC) was over 150 µM in the experiment with Staphylococcus aureus; over 150 µM in the experiment with Acinetobacter baumannii; 0.3 µM (≈ 0.0919 µg/mL) in experiment [1]; over 150 µM in the experiment on Alternaria brassicicola; over 150 µM in the experiment with Curvularia lunata.

Turning to `CC1=C[C@@H]2O[C@]34CC[C@](O)(C1)[C@H]2[C@]3(O)[C@@H](O)c1cccc(O)c1C4=O`, the IC50 in the experiment with NCI-H187 was over 145 µM; with MCF7, over 145 µM; in the experiment with Plasmodium falciparum, over 28 µM; in the experiment with Vero, over 145 µM. Besides, the MIC with Staphylococcus aureus is over 145 µM; with Acinetobacter baumannii it was over 145 µM; in [1] it was 145 µM (≈ 50 µg/mL); in the experiment with Alternaria brassicicola it was over 145 µM; in the experiment with Curvularia lunata, over 145 µM.

Turning to `CO[C@H]1/C=C/O[C@@]2(C)Oc3c(C)c(O)c4c(O)c(c(/C=N/N5CCN(C)CC5)c(O)c4c3C2=O)NC(=O)/C(C)=C\C=C\[C@H](C)[C@H](O)[C@@H](C)[C@@H](O)[C@@H](C)[C@H](OC(C)=O)[C@@H]1C` [RIFAMPIN], the MIC in the experiment with Staphylococcus aureus turned out to be 1.9 µM (≈ 1.56 µg/mL); in the experiment with Acinetobacter baumannii, 3.8 µM (≈ 3.13 µg/mL); in experiment [1] it was 0.006 µM (≈ 0.00494 µg/mL).

In the case of `CC1=CC(=O)[C@@H]2C3=C(CC[C@]2(O)C1)C(=O)c1c(O)cccc1C3=O`, the half-inhibitory concentration (IC50) in the experiment with NCI-H187 amounted to 2.2 µM; with MCF7 it was 2.2 µM; with Plasmodium falciparum, 2.2 µM; in the experiment on Vero, 1.8 µM. Further, the MIC is over 150 µM in the experiment with Staphylococcus aureus; over 150 µM in the experiment with Acinetobacter baumannii; 0.6 µM (≈ 0.195 µg/mL) in [1]; over 150 µM with Alternaria brassicicola; over 150 µM in the experiment with Curvularia lunata.

In the case of `CC1=CC(=O)[C@@H]2[C@H]3[C@H](CC[C@]2(O)C1)C(=O)c1c(O)cccc1[C@@H]3O`, the IC50 with NCI-H187 was over 150 µM; in the experiment with MCF7 it was over 150 µM; with Plasmodium falciparum, 28.3 µM; with Vero it was 147 µM. The MIC in the experiment with Staphylococcus aureus is over 150 µM; in the experiment on Acinetobacter baumannii, over 150 µM; in experiment [1] it was 9.5 µM (≈ 3.12 µg/mL); in the experiment on Alternaria brassicicola it was over 150 µM; in the experiment with Curvularia lunata, over 150 µM.

For `Cc1ccc2c3c(ccc2c1)C(=O)c1c(O)cccc1C3=O`, the IC50 in the experiment on NCI-H187 was 83.3 µM; in the experiment with MCF7 it was 55.3 µM; with Plasmodium falciparum, over 35 µM; with Vero it was 35.4 µM. Besides, the MIC in the experiment with Staphylococcus aureus was over 150 µM; with Acinetobacter baumannii, over 150 µM; in experiment [1] it was 10.9 µM (≈ 3.14 µg/mL); with Alternaria brassicicola, over 150 µM; in the experiment on Curvularia lunata, over 150 µM.

Turning to `CN[C@H](CC(C)C)C(=O)N[C@H]1C(=O)N[C@@H](CC(N)=O)C(=O)N[C@H]2C(=O)N[C@H]3C(=O)N[C@H](C(=O)N[C@H](C(=O)O)c4cc(O)cc(O)c4-c4cc3ccc4O)[C@H](O)c3ccc(c(Cl)c3)Oc3cc2cc(c3O[C@@H]2O[C@H](CO)[C@@H](O)[C@H](O)[C@H]2O[C@H]2C[C@](C)(N)[C@H](O)[C@H](C)O2)Oc2ccc(cc2Cl)[C@H]1O` [VANCOMYCIN], the minimal inhibitory concentration (MIC) in the experiment with Staphylococcus aureus came out at 0.3 µM (≈ 0.435 µg/mL).

Turning to `CC1=C[C@@H](O)[C@@H]2C3=C(CC[C@]2(O)C1)C(=O)c1c(O)cccc1C3=O`, the IC50 came to 2.3 µM in the experiment with NCI-H187, 3.4 µM with MCF7, 2.5 µM in the experiment on Plasmodium falciparum and 1.1 µM with Vero. Besides, the minimal inhibitory concentration (MIC) in the experiment with Staphylococcus aureus is over 150 µM; in the experiment on Acinetobacter baumannii, over 150 µM; in experiment [1], 2.4 µM (≈ 0.783 µg/mL); in the experiment with Alternaria brassicicola, over 150 µM; in the experiment with Curvularia lunata it was over 150 µM.

Turning to `Cc1cc(O)c2c3c(ccc2c1)C(=O)c1c(O)cccc1C3=O` [TETRANGULOL], the IC50 was determined as 17.1 µM in the experiment on NCI-H187, 18 µM in the experiment on MCF7, 5.9 µM with Plasmodium falciparum and 4.4 µM with Vero. Further, the MIC in the experiment with Staphylococcus aureus is over 150 µM; in the experiment with Acinetobacter baumannii, over 150 µM; in [1], 2.6 µM (≈ 0.791 µg/mL); in the experiment with Alternaria brassicicola it was over 150 µM; with Curvularia lunata, over 150 µM.

With `C[C@H]1[C@@H](O)O[C@@H]2O[C@@]3(C)CC[C@H]4[C@H](C)CC[C@@H]1[C@@]24OO3` [ARTENIMOL], the IC50 with Plasmodium falciparum was 0.002 µM.

The term IC50 denotes the concentration at which inhibition is half-maximal. By MIC is commonly meant the lowest concentration that inhibits growth of the organism.
